The values that follow come from patent US12448383B2, “Compounds and methods for treatment of viral infections” (priority 2022, dated 2025).

Like-named read-outs stand apart in the source and are kept apart here. A value given as a limit tells only on which side of the number the result lay.

In data set [1] the test system is Respiratory syncytial virus recombinant with luciferase (RSV-Luc5) in HEp-2 cells. Briefly: microbe, parasite or virus in culture. In kind it is cell-based. The conditions noted are these: human respiratory syncytial virus.
Data set [2] relates to SARS Coronavirus 2 recombinant with NanoLuc (SARS-CoV2-NLuc) in A549-hACE2 cells. Briefly: organism not typed. Format: cell-based.
Data set [3] concerns Respiratory syncytial virus recombinant with luciferase (RSV-Luc5) in Normal Human Bronchial Epithelial (NHBE) cells. Briefly: microbe, parasite or virus in culture. In kind it is cell-based.
A short description of data set [4]: CC50 MT4 cytotoxicity (Cell-Titer Glo). In kind it is cell-based. The note with it: human. Summed up: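 CC50 values are the concentrations cutting viability by 50%, fitted by non-linear regression against untreated (100%) and 2 μM puromycin (0%) controls. Cell-Titer Glo luminescence measured after 4-5 days at 37° C exposure of uninfected MT-4 and HEp-2 cells to 3-fold dilutions spanning 15 nM to 100,000 nM.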

A short description of a further data set: GI S9 stability. In kind it is in vitro ADME. The note with it: human, s9, pH 7.4. The protocol: Example G: GI S9 Stability
Duplicate aliquots of test compound or positive control substrate (GS-7340) were added to S9 stock diluted with 100 mM phosphate buffered saline, pH 7.4, to obtain a protein concentration of 1.0 mg/mL. The S9 metabolic reactions were initiated by the addition of the substrates to the S9 reaction mixture to a final concentration of 2 μM. At 0, 10, 20, 30, 60 and 120 min, […] aliquots of the reaction mixture were transferred to plates containing […] of IS/Q solution. After quenching, the plates were centrifuged at 3000 g for 30 minutes, and 150 μL aliquots of each supernatant were diluted with 150 μL water. Aliquots ([…]) of the diluted supernatant were analyzed on a Thermo Q-Exactive mass spectrometer as described below. GI S9 Stability—No phenylmethylsulfonyl fluoride (PMSF): Similar to the procedure described above, test compounds were incubated at 2 μM with 1 mg/mL PMSF-free Intestinal S9 fractions. Samples are removed at 6 time points over the course of a 120 min experiment and the parent compound disappreance and reference compound A formation is determined by mass spectrometry.
Example K: Liquid Chromatography/Mass Spectroscopy Methods for S9 and Plasma Stability
Quantification of test compounds, Reference Compound A (S9 stability assay nucleoside metabolite), and controls was performed by analyte/internal standard peak area ratio (PAR) values measured on a Thermo Q-Exactive mass spectrometer coupled to a Dionex UltiMate 3000 HPLC with a Leap Technologies HTC PAL autosampler. The column used for analysis of test compounds and Reference Compound A was a Waters Acquity BEH C18 ([…] particle size, 2.1′50 mm). The column used for control (GS-7340) was a Thermo Hypersil GOLD ([…] particle size, 2.1′50 mm). Mobile phase A consisted of 0.1% (v/v) formic acid in water. Mobile phase B consisted of 0.1% (v/v) formic acid in acetonitrile. Elution of analytes was achieved by a series of linear gradients of acetonitrile in water containing 0.1°(v/v) formic acid. The mass spectrometer was calibrated on a weekly basis and mass tolerance of 5 ppm was used.

The nature of data set [5]: GI S9 stability - no PMSF. The conditions noted are these: pH 7.4; human intestinal S9, PMSF-free; read-out: GIS9-HUMAN-NoPMSF T1/2. Format: in vitro ADME. The method, boiled down:
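Stability was assessed by Q-Exactive LC-MS peak area ratios against internal standard, tracking loss of parent and appearance of nucleoside metabolite Reference Compound A. Incubations used 2 μM compound in 1 mg/mL intestinal S9 without PMSF (PBS, pH 7.4), with six samples taken over 120 min.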

The next data set is described as follows: Plasma stability. In kind it is in vitro ADME. Details: unit not given here. The note with it: 37° C., 2 μM substrate. Summed up: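 LC-MS (Q-Exactive, 5 ppm tolerance, 0.1% formic acid water/acetonitrile gradient) quantified compound in quenched aliquots. Aliquots were taken at 0.05, 0.5, 1, 2, 3 and 4 hr and quenched with internal-standard solution, and supernatants were diluted with water after centrifugation.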

Data set [6] concerns Caco-2 cells (clone C2BBe1). Briefly: CACO-2 permeability. Details: unit not given here. In kind it is in vitro ADME. The conditions noted are these: for DM Caco2 A to B: apical to basolateral, donor pH 6.5, receiver pH 7.4; for DM Caco2 B to A: basolateral to apical. The method, boiled down: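 A-to-B and B-to-A flux measured by LC-MS/MS from receiver samples taken at 1 and 2 h, with donor sampled at 0 and 2 h and recovery checked. Buffers: pH 6.5 HBSS with 200 μM BNPP on the donor side, pH 7.4 with BSA on the receiver side. Monolayers were 21-day cultures, TEER-verified, in duplicate wells.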
A general note: Passage across Caco-2 layers is used to estimate intestinal permeability.

A short description of data set [7]: Thermodynamic solubility in pH7 buffered solution. The note with it: 50 mM phosphate buffer pH7, 150 mM NaCl, ambient temperature, 24 hours. The protocol: Solubility was determined at ambient temperature in a 50 mM phosphate buffered pH7 solution with 150 mM NaCl (to achieve isotonicity). Solids were added to the buffered solution in 1.5-mL Eppendorf tubes, vortexed for 1 minute, then agitated for 24 hours in an Eppendorf ThermoMixer C. […] Supernatants were diluted to a volume of 1 mL with 30:70 v/v acetonitrile:water. All diluted supernatants were analyzed by UPLC using a Waters Acquity UPLC with a PDA UV detector.

Data set [8] can be described thus: Stability in pH2 buffered solution. In kind it is physicochemical. The note with it: pH2 phosphate buffer, 40° C., 24 h; Table N2. Summed up: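 UPLC % area-normalized compound peak tracked over 24 hrs at 40° C. (0, 3, 6, 9, 12 and 24 hrs). Samples at 50 μg/mL, prepared from 1 mg/mL acetonitrile stock, in pH2 or pH7 50 mM phosphate/150 mM NaCl buffer.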
Data set [9] is described as follows: Stability in pH7 buffered solution. The conditions noted are these: pH7 phosphate buffer, 40° C., Table N2. Format: physicochemical. The protocol:
Example N: Stability in p112 and p117 Buffered Solutions
The aqueous stability of compounds over a time of 24 hours at 40° C. was assessed. Stability was determined in 50 mM phosphate buffered solutions at both pH2 and pH7, with 150 mM NaCl (to achieve isotonicity). 3-5 mg of solid compounds were added to 7 mL scintillation vials. Acetonitrile was added to each vial to produce a 1 mg/mL stock solution. Stock solutions were diluted to 50 μg/mL in either pH2 or pH7 phosphate buffer, to a volume of 1 mL. For each compound and pH condition, 50 μg/mL samples were prepped in duplicate. One sample was placed on the UPLC tray at 40° C. for analysis, and the second sample was placed in a 40° C. oven for storage. Sample preps for each compound were offset by 40 minutes to account for run time on UPLC.
Concentration timepoints were measured at 0, 3, 6, 9, and 12 hrs. After 24 hrs, samples in the 40° C. oven were removed and analyzed by UPLC.
In FIG. 2, % AN stands for % area normalized. That is, % AN is the area of the compound peak relative to the sum of areas of all the peaks in the UPLC chromatogram. For example, if there were two peaks, compound peak with an area of 9 and another peak with an area of 1, then the % AN of the compound peak would be 90%.

Setting [10] is: HEp-2, 72 h, read-out: RSV Hep2 EC50.

As usually defined, the EC50 is the concentration at which the effect is half-maximal. The term CC50 denotes the concentration giving 50% cytotoxicity. As to `CC(C)(C)COC(=O)OC[C@H]1O[C@@](C#N)(c2ccc3c(N)ncnn23)[C@H](O)[C@@H]1O` [Compound 3, ((2R,3S,4R,5R)-5-(4-aminopyrrolo[2,1-f][1,2,4]triazin-7-yl)-5-cyano-3,4-dihydroxytetrahydrofuran-2-yl)methyl neopentyl carbonate], the EC50 worked out at 545 nM in data set [1] (setting [10]); 796 nM in data set [2] (48 h; read-out: SARS-CoV2 EC50); 1600 nM in [3] (72 h, read-out: RSV NHBE EC50). In addition, in data set [4], the CC50 is > 50000 nM. Besides, the half-life at 2 µM in the data set “GI S9 stability” came out at 81 min; in data set [5], 0.8 min. Further, the “STA Human Plasma 37” value in “Plasma stability” is listed as 82.745. Also, the “DM Caco2 A to B” value in data set [6] is on record as 1.23. In addition, the “DM Caco2 B to A” value in [6] is recorded as 9.8.
Consider `N#C[C@@]1(c2ccc3c(N)ncnn23)O[C@H](COC(=O)OCc2ccccc2)[C@@H](O)[C@H]1O` [Compound 13, ((2R,3S,4R,5R)-5-(4-aminopyrrolo[2,1-f][1,2,4]triazin-7-yl)-5-cyano-3,4-dihydroxytetrahydrofuran-2-yl)methyl benzyl carbonate], for which the EC50 in data set [1] (setting [10]) worked out at 444 nM; in data set [2] (48 h; read-out: SARS-CoV2 EC50) it was 1250 nM; in [3] (72 h, read-out: RSV NHBE EC50), 1530 nM. Besides, the CC50 in [4] was found to be 39100 nM. Also, in “GI S9 stability”, the half-life at 2 µM came to 35.3 min. Besides, the “STA Human Plasma 37” value in the data set “Plasma stability” was determined as 3. The “DM Caco2 A to B” value in [6] was determined as 0.59. For the same molecule, in data set [6], the “DM Caco2 B to A” value is given as 8.8. Moreover, the “Sol pH 7” value in data set [7] is reported as 0.12. Besides, the “pH 2 Stability 24 h % AN” value in data set [8] worked out at 98 % AN. The “pH 7 Stability 24 h % AN” value in [9] is listed as 97 % AN.
On to `N#C[C@@]1(c2ccc3c(N)ncnn23)O[C@H](COC(=O)OC2CCCCCCC2)[C@@H](O)[C@H]1O` [Compound 14, ((2R,3S,4R,5R)-5-(4-aminopyrrolo[2,1-f][1,2,4]triazin-7-yl)-5-cyano-3,4-dihydroxytetrahydrofuran-2-yl)methyl cyclooctyl carbonate], for which the EC50 in data set [1] (setting [10]) was determined as 350 nM; in [2] (48 h, read-out: SARS-CoV2 EC50), 1560 nM; in data set [3] (72 h, read-out: RSV NHBE EC50), 380 nM. The CC50 in data set [4] was > 50000 nM. Further, the half-life at 2 µM was found to be 56.3 min in “GI S9 stability” and 1.07 min in data set [5]. For the same molecule, in “Plasma stability”, the “STA Human Plasma 37” value was 262.42. Moreover, the “DM Caco2 A to B” value in data set [6] is listed as 1.84. Besides, the “DM Caco2 B to A” value in data set [6] was determined as 21.7. Also, in data set [8], the “pH 2 Stability 24 h % AN” value was found to be 97 % AN. The “pH 7 Stability 24 h % AN” value in [9] was 97 % AN.
For the molecule `CCC(CC)COC(=O)OC[C@H]1O[C@@](C#N)(c2ccc3c(N)ncnn23)[C@H](O)[C@@H]1O` [Compound 15, ((2R,3S,4R,5R)-5-(4-aminopyrrolo[2,1-f][1,2,4]triazin-7-yl)-5-cyano-3,4-dihydroxytetrahydrofuran-2-yl)methyl (2-ethylbutyl) carbonate], the EC50 in [1] (setting [10]) was 530 nM; in [2] (48 h; read-out: SARS-CoV2 EC50) it was 1240 nM; in data set [3] (72 h, read-out: RSV NHBE EC50), 900 nM. The CC50 in data set [4] was > 50000 nM. This molecule also gave a half-life at 2 µM in the data set “GI S9 stability” of 33.1 min. Besides, the “STA Human Plasma 37” value in the data set “Plasma stability” is 40.503. Besides, the “DM Caco2 A to B” value in data set [6] is recorded as 1.46. Also, the “DM Caco2 B to A” value in data set [6] was determined as 12. Moreover, the “Sol pH 7” value in [7] stood at 0.26. Also, the “pH 2 Stability 24 h % AN” value in data set [8] is on record as 98 % AN. The “pH 7 Stability 24 h % AN” value in data set [9] was determined as 97 % AN.
`COC(C)(C)COC(=O)OC[C@H]1O[C@@](C#N)(c2ccc3c(N)ncnn23)[C@H](O)[C@@H]1O` [Compound 54, ((2R,3S,4R,5R)-5-(4-aminopyrrolo[2,1-f][1,2,4]triazin-7-yl)-5-cyano-3,4-dihydroxytetrahydrofuran-2-yl)methyl (2-methoxy-2-methylpropyl) carbonate]: the EC50 amounted to 587 nM in data set [1] (setting [10]); 5690 nM in [2] (48 h; read-out: SARS-CoV2 EC50); 1020 nM in [3] (72 h, read-out: RSV NHBE EC50). For the same molecule, the CC50 in data set [4] is > 50000 nM. In addition, the values for the half-life at 2 µM (in “GI S9 stability”; in [5]) were 692 min and 4.33 min, respectively. Besides, the “STA Human Plasma 37” value in “Plasma stability” worked out at 108. Further, the “DM Caco2 A to B” value in data set [6] was 0.25. Moreover, the “DM Caco2 B to A” value in data set [6] turned out to be 3.8.
Broadly, the logD is the decadic logarithm of the distribution of all forms, ionised or not, between an organic phase and buffer at a given pH. Take `COc1ccc(OC(=O)OC[C@H]2O[C@@](C#N)(c3ccc4c(N)ncnn34)[C@H](O)[C@@H]2O)cc1` [Compound 111, ((2R,3S,4R,5R)-5-(4-aminopyrrolo[2,1-f][1,2,4]triazin-7-yl)-5-cyano-3,4-dihydroxytetrahydrofuran-2-yl)methyl (4-methoxyphenyl) carbonate]: the EC50 was found to be 220 nM in data set [1] (HEp-2, read-out: EC50 RSVFluc-Hep2 384 V2); 3420 nM in data set [2] (A549; read-out: EC50 SARS CoV2 NanoLuc A549 384); 1300 nM in data set [3] (read-out: EC50 RSVFluc-NHBE 384 V2). The CC50 in data set [4] was > 50000 nM. For the same molecule, the half-life at 2 µM came out at 53.1 min in “GI S9 stability” and 3.93 min in [5]. Besides, in “Plasma stability”, the “STA Human Plasma 37” value came to 35. Also, the “DM Caco2 A to B” value in data set [6] amounted to 0.625. In addition, the “DM Caco2 B to A” value in data set [6] came out at 11.22. In “physchem”, this molecule had a logD of 1.5.
